Structures can show the parent of a compound that is named as a salt. Where two headings read alike, the source gives them in different places.

In data set [1] the test system is NCI-H460 non-small cell lung carcinoma cells. Put plainly: Cytotoxicity on NCI-H460 tumor cell line (sulphorodamine B test). In kind it is cell-based. To be noted: further 48 h in drug-free medium, read-out: NCI-H460 IC50 μM ± SD. Here is the method:
To evaluate the effect of the compounds on survival cells, the sulphorodamine B test was used. To test the effects of the compounds on cell growth, NCI-H460 non-small cell lung carcinoma cells were used. Tumor cells were grown in RPMI 1640 containing 10% fetal bovine serum (GIBCO).
Tumor cells were seeded in 96-well tissue culture plates at approximately 10% confluence and were allowed to attach and recover for at least 24 h. Varying concentrations of the drugs were then added to each well to calculate their IC50 value (the concentration which inhibits the 50% of cell survival). The plates were incubated at 37° C. for 24 h. At the end of the treatment, the plates were washed by remotion of the surnatant and addition of PBS. Medium culture (200 μL) was added again and the plates were incubated for further 48 h at 37° C. 200 μl PBS and 50 μl of cold 80% TCA were added. The plates were incubated on ice for at least 1 h. TCA was removed, the plates were washed 3 times for immersion in distilled-water and dried on paper and at 40° C. for 5 min. Then 200 μl of 0.4% sulphorodamine B in 1% acetic acid were added. The plates were incubated at room temperature for other 30 min. Sulphorodamine B was removed, the plates were washed for immersion in 1% acetic acid for 3 times, then they were dried on paper and at 40° C. for 5 min. Then 200 μl Tris 10 mM were added, the plates were kept under stirring for 20 min. The survival cell was determined as optical density by a Multiskan spectrofluorimeter at 540 nm. The amount of cells killed was calculated as the percentage decrease in sulphorodamine B binding compared with control cultures, the latter involving the use of (2E)-3-[3′-(1-adamantyl)-4′-hydroxy[1,1′-biphenyl]-4-yl]-2-propenoic acid (ST1926).
The IC50 values were calculated with the “ALLFIT” program.

For data set [2], the system named is human ovarian cancer cell line A2780. The data set is described as follows: Cytotoxicity on A2780 tumor cell line. In kind it is cell-based. To be noted: 5 Mm as printed in head (text: 5 μM), preliminary results; for inhibition at 5 µM: Homo sapiens, A2780. How it is done:
The antiproliferative effect of the compounds is reported as percentages of inhibition of cellular proliferation measured at 5 μM as reported in table 3.

The subject of a further data set is A431 tumour cells. Put plainly: In vivo study on A431 epidermoid carcinoma. Conditions: iv 10 mg/10 ml/kg, qdx3/wx2w, after two weeks of treatment, sc A431 in CD1 nude mice; p=0.036 versus vehicle. Here is the method: The tumour was generated by subcutaneous injection of A431 tumour cells (5×10^6/100 μl/mouse), in 0.1 ml medium Tc199 in the right flank of CD1 nude mice. 3 days after tumour injection, ST5589 was delivered iv at a dose of 10 mg/10 ml/kg according to the schedule qdx3/wx2w in a group of 9 mice.
To evaluate the antitumour activity of ST5589, tumour diameters were measured biweekly with a Vernier caliper and tumour volume was calculated according to the formula TV=d^2×D/2
where d and D are the shortest and longest diameters, respectively.
The efficacy of the drug was assessed as the tumour volume inhibition according to the formula reported underneath: […]

The nature of data set [3]: Chemical stability in solution at various pH. In kind it is physicochemical. Conditions: after 24 h at pH 7.4. Here is the method: The compounds were screened at various pH in order to test their relative chemical stability in solution. All of them resulted stable after incubation for 3 h at pH=1.2. Chemical stability was also investigated at pH=7.4 after 24 h incubation.

Where [4] appears, read: Homo sapiens, NCI-H460, 24 h treatment.

A word on the IC50: it is the midpoint of a concentration-inhibition curve. For the compound `O=C(O)/C=C/c1ccc(-c2ccc(O)c(C34CC5CC(CC(C5)C3)C4)c2)cc1` [Control, (2E)-3-[3′-(1-adamantyl)-4′-hydroxy[1,1′-biphenyl]-4-yl]-2-propenoic acid, reference compound], the IC50 in data set [1] (setting [4]) came to 0.13 µM. What is called inhibition is the percentage by which the read-out fell short of the control. A lower inhibition goes with a response near the control. On to `CC(C)[C@H](N)C(=O)Oc1ccc(-c2ccc(/C=C/C(=O)O)cc2)cc1C12CC3CC(CC(C3)C1)C2` [Example 1, (S)-2-amino-3-methyl-butyric acid 3-adamantan-1-yl-4′-((E)-2-carboxy-vinyl)-biphenyl-4-yl ester hydrochloride], for which the IC50 in data set [1] (setting [4]) is 0.51 ± 0.003 µM. The compound further returned an inhibition at 5 µM in data set [2] of 93%.

Take `O=C(O)/C=C/c1ccc(-c2ccc(OC(=O)COCCOCCOCC(=O)O)c(C34CC5CC(CC(C5)C3)C4)c2)cc1` [Example 2, (E)-3-(3′-adamantan-1-yl-4′-{2-[2-(2-carboxymethoxy-ethoxy)-ethoxy]-acetoxy}-biphenyl-4-yl)-acrylic acid]: in data set [1] (setting [4]), the IC50 amounted to 0.17 ± 0.007 µM. In addition, in data set [2], the inhibition at 5 µM worked out at 93%. The like results for `CCCCCCCCCCC(=O)Oc1ccc(-c2ccc(/C=C/C(=O)O)cc2)cc1C12CC3CC(CC(C3)C1)C2` [Example 3, undecanoic acid 3-adamantan-1-yl-4′-((E)-2-carboxy-vinyl)-biphenyl-4-yl ester] were, in that order, 1.54 ± 0.08 µM and 94%.

In the case of `Cl.O=C(O)/C=C/c1ccc(-c2ccc(OC(=O)CCCN3CCOCC3)c(C34CC5CC(CC(C5)C3)C4)c2)cc1` [Example 4, 4-morpholin-4-yl-butyric acid 3-adamantan-1-yl-4′-((E)-2-carboxy-vinyl)-biphenyl-4-yl ester hydrochloride], in data set [1] (setting [4]), the IC50 was 0.22 ± 0.009 µM. The “reduction in tumour volume (tumour volume inhibition)” value in the data set with A431 tumour cells is listed as 34%. The inhibition at 5 µM in data set [2] came to 94%.

As for `CN1CCN(CCCC(=O)Oc2ccc(-c3ccc(/C=C/C(=O)O)cc3)cc2C23CC4CC(CC(C4)C2)C3)CC1` [Example 5, 4-(4-methyl-piperazin-1-yl)-butyric acid 3-adamantan-1-yl-4′-((E)-2-carboxy-vinyl)-biphenyl-4-yl ester dihydrochloride], the IC50 in data set [1] (setting [4]) is 0.24 ± 0.01 µM. Moreover, the inhibition at 5 µM in data set [2] was 92%.

Regarding `CNCCNC(=O)Oc1ccc(-c2ccc(/C=C/C(=O)O)cc2)cc1C12CC3CC(CC(C3)C1)C2` [Example 6, (E)-3-[3′-adamantan-1-yl-4′-(2-methylamino-ethylcarbamoyloxy)-biphenyl-4-yl]-acrylic acid], the IC50 in data set [1] (setting [4]) is 0.24 ± 0.008 µM. In data set [2], this compound came in with an inhibition at 5 µM of 93%. The like results for `O=C(O)/C=C/c1ccc(-c2ccc(OC(=O)NCC(=O)O)c(C34CC5CC(CC(C5)C3)C4)c2)cc1` [Example 7, (E)-3-(3′-adamantan-1-yl-4′-carboxymethylcarbamoyloxy-biphenyl-4-yl)-acrylic acid] were, in that order, 3 ± 0.1 µM and 26%.

Turning to `NCCCCNC(=O)Oc1ccc(-c2ccc(/C=C/C(=O)O)cc2)cc1C12CC3CC(CC(C3)C1)C2` [Example 8, (E)-3-[3′-adamantan-1-yl-4′-(4-amino-butylcarbamoyloxy)-biphenyl-4-yl]-acrylic acid hydrochloride], in data set [1] (setting [4]), the IC50 was found to be 2.6 ± 0.08 µM. The compound also displayed an inhibition at 5 µM in data set [2] of 70%. The like results for `O=C(O)/C=C/c1ccc(-c2ccc(OC(=O)NCCN3CCOCC3)c(C34CC5CC(CC(C5)C3)C4)c2)cc1` [Example 9, (E)-3-[3′-adamantan-1-yl-4′-(2-morpholin-4-yl-ethyl-carbamoyloxy)-biphenyl-4-yl]-acrylic acid hydrochloride] were, in that order, 0.92 ± 0.05 µM and 90%. The % Inhibition is the share of the control response that was lost under treatment. Turning to `CCCCCCCCCCCNC(=O)Oc1ccc(-c2ccc(/C=C/C(=O)O)cc2)cc1C12CC3CC(CC(C3)C1)C2` [Example 10, (E)-3-(3′-adamantan-1-yl-4′-undecyl-carbamoyloxy-biphenyl-4-yl)-acrylic acid], the IC50 in data set [1] (24 h treatment) amounted to 1.39 ± 0.04 µM. For the same compound, the “% Inhibition at 5 Mm on A2780 cell line” value in data set [2] was determined as 90%. As to `O=C(O)/C=C/c1ccc(-c2ccc(OC(=O)N3CCC(N4CCCCC4)CC3)c(C34CC5CC(CC(C5)C3)C4)c2)cc1` [Example 11, [1,4′]bipiperidinyl-1′-carboxylic acid 3-adamantan-1-yl-4′-((E)-2-carboxy-vinyl)-biphenyl-4-yl ester hydrochloride], the IC50 in data set [1] (setting [4]) was greater than 20 µM. On to `CC(C)NC(=O)Oc1ccc(-c2ccc(/C=C/C(=O)O)cc2)cc1C12CC3CC(CC(C3)C1)C2` [Example 12], for which the IC50 in data set [1] (24 h treatment) is 5 µM. Consider `O=C(O)/C=C/c1ccc(-c2ccc(OC(=O)NC3CCN(C(=O)OCc4ccccc4)CC3)c(C34CC5CC(CC(C5)C3)C4)c2)cc1` [Example 13, 4-[3-adamantan-1-yl-4′-((E)-2-carboxy-vinyl)-biphenyl-4-yloxycarbonylamino]-piperidine-1-carboxylic acid benzyl ester], for which, in data set [1] (setting [4]), the IC50 is 5 µM. Besides, at 5 µM the inhibition in data set [2] was 71%. For `CC(C)C[C@H](NC(=O)Oc1ccc(-c2ccc(/C=C/C(=O)O)cc2)cc1C12CC3CC(CC(C3)C1)C2)C(=O)NCC(=O)O` [Example 14, (E)-3-{3′-Adamantan-1-yl-4′-[(S)-1-(carboxymethyl-carbamoyl)-3-methyl-butylcarbamoyloxy]-biphenyl-4-yl}-acrylic acid], the IC50 in data set [1] (setting [4]) came out at 3.5 ± 0.2 µM. In the case of `COCCOCOc1ccc(-c2ccc(/C=C/C(=O)O)cc2)cc1C12CC3CC(CC(C3)C1)C2` [Example 15, (E)-3-[3′-Adamantan-1-yl-4′-(2-methoxyethoxymethoxy)-biphenyl-4-yl]acrylic acid], the IC50 in data set [1] (setting [4]) turned out to be 4.2 ± 0.04 µM. The inhibition at 5 µM in data set [2] worked out at 78%. `O=C(O)/C=C/c1ccc(-c2ccc(OC(=O)C3CC3)c(C34CC5CC(CC(C5)C3)C4)c2)cc1` [Example 16, (E)-cyclopropanecarboxylic acid 3-adamantan-1-yl-4′-(2-carboxyvinyl)-biphenyl-4-yl ester]: the IC50 in data set [1] (24 h treatment) came to 0.85 ± 0.03 µM. In addition, the “% Inhibition at 5 Mm on A2780 cell line” value in data set [2] amounted to 93%. On to `O=C(O)/C=C/c1ccc(-c2ccc(OCN3C(=O)c4ccccc4C3=O)c(C34CC5CC(CC(C5)C3)C4)c2)cc1` [Example 17, (E)-3-[3′-Adamantan-1-yl-4′-(1,3-dioxo-1,3-dihydroisoindol-2-ylmethoxy)-biphenyl-4yl]-acrylic acid], for which, in data set [1] (setting [4]), the IC50 came to 8.4 ± 1.6 µM. Turning to `CCCCCC=CC/C=C/CCCCCCCC(=O)Oc1ccc(-c2ccc(C=CC(=O)O)cc2)cc1C12CC3CC(CC(C3)C1)C2` [Example 18, (E)-Octadeca-9,12-dienoic acid 3-adamantan-1-yl-4′-(2-carboxyvinyl)-biphenyl-4-yl ester], the IC50 in data set [1] (setting [4]) was 7.8 ± 0.7 µM. This compound also showed an inhibition at 5 µM in data set [2] of 55%. Consider `CCCOC(=O)OCOc1ccc(-c2ccc(/C=C/C(=O)O)cc2)cc1C12CC3CC(CC(C3)C1)C2` [Example 19], for which the IC50 in data set [1] (24 h treatment) was found to be 0.32 ± 0.01 µM.

In the case of `NC1(C(=O)Oc2ccc(-c3ccc(/C=C/C(=O)O)cc3)cc2C23CC4CC(CC(C4)C2)C3)CC1.O=C(O)C(F)(F)F` [Example 20, (E)-1-[3-Adamantan-1-yl-4′-(2-carboxyvinyl)-biphenyl-4-yloxycarbonyl]-cyclopropyl-ammonium trifluoroacetate], in data set [1] (setting [4]), the IC50 was 0.1 ± 0.003 µM. Besides, in data set [2], the inhibition at 5 µM was found to be 94%. For the same compound, the “amount of E-4-(3-(1-adamantyl)-4-hydroxyphenyl)cinnamic acid (hydrolysed parent compound)” value in data set [3] is on record as 8%. Regarding `N#CCOc1ccc(-c2ccc(/C=C/C(=O)O)cc2)cc1C12CC3CC(CC(C3)C1)C2` [Example 21, (E)-3-(3′-Adamantan-1-yl-4′-cyanomethoxybiphenyl-4-yl)-acrylic acid], in data set [1] (setting [4]), the IC50 stood at 0.85 ± 0.06 µM. Same read-out and setting: in the case of `O=C(O)/C=C/c1ccc(-c2ccc(OCCN3CCOCC3)c(C34CC5CC(CC(C5)C3)C4)c2)cc1` [Example 23, (E)-3-[3′-Adamantan-1-yl-4′-(2-morpholin-4-yl-ethoxy)biphenyl-4-yl]-acrylic acid] it was greater than 5 µM.
